Our source for the EC50 and inhibition values is patent publication US10287267B2, “Isoquinolin-3-yl carboxamides and preparation and use thereof” (Samumed, LLC, priority 2016, dated 2019).

One may read the EC50 as the concentration needed to bring the measured effect to its halfway point.

Assay [1] deals with Wnt pathway (Sp5-Luc reporter, TCF/LEF binding sites) in SW480 colon carcinoma cells. Nature of the assay: Screening assay for Wnt activity: Sp5-Luc reporter gene assay.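 For all read-outs here: firefly luciferase luminescence read in stably transduced SW480 cells carrying the Sp5 promoter reporter with eight TCF/LEF sites, compounds given in 0.1% DMSO final.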 The settings on record: Homo sapiens; for EC50: Sp5-Luc reporter, SW480 cells, 36 to 48 hours. The format is cell-based, human. On the technique in general: In a reporter assay the amount or activity of a reporter protein is the signal.
Description: The screening assay for Wnt activity is described as follows.
Following incubation, 15 μl of BriteLite Plus luminescence reagent (Perkin Elmer) was added to each well of the 384-well assay plates. The plates were placed on an orbital shaker for 2 min and then luminescence was quantified using the Envision (Perkin Elmer) plate reader.

Assay [2] concerns the target recombinant DYRK1A kinase (Homo sapiens (Human), UniProt Q13627). Put plainly: DYRK1A kinase assay (Ser/Thr 18 peptide Z-lyte FRET).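 Note: Read-out is the coumarin to fluorescein emission ratio, referenced to unphosphorylated (0%) and phosphorylated (100%) Ser/Thr 18 peptide controls, values from dose-response curves by non-linear regression.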 The format is biochemical. As to conditions: 30 μM ATP, 1 h room temperature.
The target of the next assay is recombinant GSK3β kinase (Homo sapiens (Human), UniProt P49841). Nature of the assay: GSK3β kinase assay (Ser/Thr 09 peptide Z-lyte FRET).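 Note: kinase activity read as coumarin to fluorescein emission ratio, 11-point threefold dilutions from 10 µM to 0.0003 µM in duplicate, unphosphorylated and phosphorylated peptide as 0% and 100% controls.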 As to conditions: 46 μM ATP, 1 h room temperature. The format is biochemical.
The subject of assay [3] is Tau phosphorylation at Ser396 (pSer396). Nature of the assay: Tau phosphorylation assay (pSer396 ELISA / western blot) in SH-SY5Y cells.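 Note: EC50 for reduction of Tau pSer396 in lysed cells, measured by colorimetric ELISA or chemiluminescent western blot, both using the same pSer396 antibody.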 The settings on record: Homo sapiens; SH-SY5Y cells, overnight (16-18 h) exposure; read-out: pSer396 Tau EC50. The format is cell-based, human.
For assay [4], the system named is SW480 colon carcinoma cells. Nature of the assay: Cell viability assay (CellTiter-Glo). The settings on record: Homo sapiens; for EC50: 96 h, SW480 cells, CellTiter-Glo, four days incubation. The format is cell-based, human.
For assay [5], the system named is α-smooth muscle actin (αSMA) positive LL29 cells. Put plainly: Inhibition of fibrotic process: αSMA in TGF-β1 treated primary human fibroblasts from IPF patients.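 For all read-outs here: controls were TGF-β1 stimulated wells with DMSO vehicle (positive) and cells given DMSO alone (negative), cultured in F12 medium with 1% fetal bovine serum.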 The settings on record: Homo sapiens, Fibroblast; for EC50: 96 h, Table 8, LL29 fibroblasts from IPF patients, TGF-β1 20 ng/mL, 4 days, dose-response 10 μM to 0.94 nM; for inhibition at 10 µM: read-out: percent value in parentheses beside EC50 >10 μM. The format is cell-based.

A further assay concerns IL-6. Put plainly: IL-6 inhibition in LPS-stimulated human peripheral blood mononuclear cells (HTRF).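 For all read-outs here: IL-6 detected by HTRF with an XL665- and Cryptate-labelled anti-IL-6 antibody pair, samples run in duplicate, EC50 obtained from a four-parameter Levenberg-Marquardt curve fit.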 The format is cell-based. As to conditions: Homo sapiens, PBMC; for EC50: Table 9, huPBMCs, LPS 50 ng/mL, 22 hours, dose-response starting from 10 μM; for inhibition at 10 µM: read-out: percent value in parentheses beside EC50 >10 μM. (In general: Time-resolved FRET reads energy transfer from a long-lived donor to a nearby acceptor.)

[6] abbreviates: SW480, read-out: percent inhibition at 10 μM.

Sequence of recombinant GSK3β kinase (P49841 whole entry): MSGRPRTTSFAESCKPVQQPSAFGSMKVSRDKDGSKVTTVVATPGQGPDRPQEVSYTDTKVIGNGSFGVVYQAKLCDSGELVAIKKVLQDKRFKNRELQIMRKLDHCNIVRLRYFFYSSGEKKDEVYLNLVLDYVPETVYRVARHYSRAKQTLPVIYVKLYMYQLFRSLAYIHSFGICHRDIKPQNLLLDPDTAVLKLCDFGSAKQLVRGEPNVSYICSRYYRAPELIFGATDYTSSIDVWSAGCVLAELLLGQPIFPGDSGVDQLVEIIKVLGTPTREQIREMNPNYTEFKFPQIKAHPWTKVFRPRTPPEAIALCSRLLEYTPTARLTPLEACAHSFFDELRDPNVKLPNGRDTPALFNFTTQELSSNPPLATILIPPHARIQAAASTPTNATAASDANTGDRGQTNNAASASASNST
Description for IL-6: After 22 hour incubation, a mixture of anti-IL6 XL665 and anti-IL-6 Cryptate diluted in reconstitution buffer (Catalog #62IL6PEC, Cisbio Inc., Bedford, Mass.) was added to each well. […] All samples were processed in duplicate. […] EC50 was determined using software generated by Dotmatics Limited (Windhill Bishops Stortford Herts, UK) using the Levenberg-Marquardt 4 parameter fitting procedure with finite different gradients.

With `Cn1cncc1-c1ccc2cnc(NC(=O)[C@H]3CCCO3)cc2c1` [Compound 537, (R)—N-(6-(1-Methyl-1H-imidazol-5-yl)isoquinolin-3-yl)tetrahydrofuran-2-carboxamide], the EC50 in assay [1] amounted to 4800 nM; in assay [2], 8.9 nM; on recombinant GSK3β kinase it was 95 nM; in assay [3], 451 nM; in assay [4] it was 8.3 µM; in assay [5], 599 nM. Also, the midpoint of the response with IL-6, the EC50, lay at 1240 nM.
For `Cn1ncc(-c2ccc3cnc(NC(=O)C4CCN(C(=O)c5ccccc5)CC4)cc3c2)c1CN1CCCCC1` [Compound 831, 1-Benzoyl-N-(6-(1-methyl-5-(piperidin-1-ylmethyl)-1H-pyrazol-4-yl)isoquinolin-3-yl)piperidine-4-carboxamide], the EC50 in assay [1] worked out at 706 nM; in assay [2] it was 3.2 nM; on recombinant GSK3β kinase, 10 nM; in assay [3], 189 nM; in assay [4] it was 0.911 µM; in assay [5] it was 244 nM. The molecule also came in with an EC50 in the assay with IL-6 of 812 nM.
Turning to `CN1CCN(CC(=O)Nc2cc3cc(-c4cnn(C)c4)c(F)cc3cn2)CC1` [Compound 372, N-(7-Fluoro-6-(1-methyl-1H-pyrazol-4-yl)isoquinolin-3-yl)-2-(4-methylpiperazin-1-yl)acetamide], the EC50 in assay [1] was found to be 3400 nM; in assay [2] it was 10.6 nM; on recombinant GSK3β kinase it was 79 nM; in assay [3], 1100 nM; in assay [4] it was 8.82 µM; in assay [5], 504 nM. Further, the EC50 with IL-6 came out at 3660 nM.
With `Cc1nnc(-c2ccc3cnc(NC(=O)CN4CCOCC4)cc3c2)s1` [Compound 952, N-(6-(5-Methyl-1,3,4-thiadiazol-2-yl)isoquinolin-3-yl)-2-morpholinoacetamide], the EC50 in assay [1] was 1470 nM; in assay [2], 7.2 nM; on recombinant GSK3β kinase it was 8 nM; in assay [3] it was 269 nM; in assay [4], 7.09 µM; in assay [5], 741 nM. In addition, in the assay on IL-6, the EC50 was over 10000 nM. In addition, the inhibition at 10 µM in the assay with IL-6 is 10.1%.
As for `Cn1cc(-c2ccc3cnc(NC(=O)C4CCN(CC(=O)O)CC4)cc3c2)cn1` [Compound 1011, 2-(4-((6-(1-Methyl-1H-pyrazol-4-yl)isoquinolin-3-yl)carbamoyl)piperidin-1-yl)acetic acid], the inhibition at 10 µM in assay [1] (setting [6]) stood at 25%; in assay [4] (setting [6]), 25%; in assay [5], 15.9%; with IL-6 it was 15.3%. The EC50 in assay [1] is over 10000 nM; in assay [2] it was 2.6 nM; at recombinant GSK3β kinase, 30 nM; in assay [3] it was over 10000 nM; in assay [4] it was over 10 µM; in assay [5], over 10000 nM. Further, the EC50 in the assay with IL-6 is over 10000 nM.
`Cn1cc(-c2ccc3cnc(NC(=O)C4CCN(CC5(C(F)(F)F)CC5)CC4)cc3c2)nn1` [Compound 470, N-(6-(1-Methyl-1H-1,2,3-triazol-4-yl)isoquinolin-3-yl)-1-((1-(trifluoromethyl)cyclopropyl)methyl)piperidine-4-carboxamide]: the EC50 in assay [1] was found to be 1180 nM; in assay [2], 2.7 nM; at recombinant GSK3β kinase it was 4 nM; in assay [3], 95 nM; in assay [4], 4.19 µM; in assay [5], 387 nM. The EC50 with IL-6 came out at 3550 nM.
Turning to `CC(C(=O)Nc1cc2cc(-c3cnn(C)c3)ccc2cn1)N1CCCC1` (stereo not shown) [Compound 288, N-(6-(1-Methyl-1H-pyrazol-4-yl)isoquinolin-3-yl)-2-(pyrrolidin-1-yl) propanamide], the EC50 was determined as 1200 nM in assay [1]; 27.3 nM in assay [2]; 20 nM on recombinant GSK3β kinase; 159 nM in assay [3]; 2.66 µM in assay [4]; 532 nM in assay [5]. The half-maximal effective concentration (EC50) with IL-6 stood at 1240 nM.
As for `CCn1cc(-c2ccc3cnc(NC(=O)CN4CCCC4)cc3c2)cn1` [Compound 285, N-(6-(1-Ethyl-1H-pyrazol-4-yl)isoquinolin-3-yl)-2-(pyrrolidin-1-yl) acetamide], the EC50 in assay [1] worked out at 3400 nM; in assay [2] it was 44.2 nM; at recombinant GSK3β kinase, 149 nM; in assay [3] it was 1580 nM; in assay [4] it was 7.02 µM; in assay [5], 1470 nM. Also, the EC50 with IL-6 came to 2270 nM.
Take `Cn1cc(-c2ccc3cnc(NC(=O)C4CCN(CC5(C)COC5)CC4)cc3c2)cn1` [Compound 87, N-(6-(1-Methyl-1H-pyrazol-4-yl)isoquinolin-3-yl)-1-((3-methyloxetan-3-yl)methyl)piperidine-4-carboxamide]: the EC50 in assay [1] amounted to 1000 nM; in assay [2], 3.3 nM; on recombinant GSK3β kinase it was 32 nM; in assay [3], 414 nM; in assay [4] it was 3.16 µM; in assay [5], 81 nM. This molecule also came in with an EC50 with IL-6 of 2940 nM.
With `Cn1cc(-c2ccc3cnc(NC(=O)CC4CNCCO4)cc3c2)cn1` (stereo not shown) [Compound 349, N-(6-(1-Methyl-1H-pyrazol-4-yl)isoquinolin-3-yl)-2-(morpholin-2-yl) acetamide], the EC50 in assay [1] came to 712 nM; in assay [2], 6.5 nM; on recombinant GSK3β kinase it was 66 nM; in assay [3], 351 nM; in assay [4] it was 0.704 µM; in assay [5], 145 nM. Besides, a half-maximal response with IL-6 (EC50) required 307 nM.
With `O=C(Nc1cc2cc(-c3cnco3)ccc2cn1)C1CC1` [Compound 973, N-(6-(Oxazol-5-yl)isoquinolin-3-yl)cyclopropanecarboxamide], the EC50 in assay [1] was found to be 609 nM; in assay [2] it was 2.9 nM; on recombinant GSK3β kinase it was 20 nM; in assay [3] it was 102 nM; in assay [4], 0.391 µM; in assay [5], 134 nM. In the assay with IL-6, this molecule had an EC50 of 395 nM.
As for `Cc1ncc(-c2ccc3cnc(NC(=O)CN4CCN(C)CC4)cc3c2)o1` [Compound 1019, N-(6-(2-Methyloxazol-5-yl)isoquinolin-3-yl)-2-(4-methylpiperazin-1-yl) acetamide], the EC50 in assay [1] was 3800 nM; in assay [2], 28.9 nM; at recombinant GSK3β kinase, 158 nM; in assay [3], 1500 nM; in assay [4] it was 9.38 µM; in assay [5], 6530 nM. The molecule further came in with an EC50 in the assay with IL-6 of 8970 nM.
For the molecule `O=C(Nc1cc2cc(-c3cnn4c3CNCC4)ccc2cn1)C1CCN(CC2(C(F)(F)F)CC2)CC1` [Compound 997, N-(6-(4,5,6,7-Tetrahydropyrazolo[1,5-a]pyrazin-3-yl)isoquinolin-3-yl)-1-((1-(trifluoromethyl)cyclopropyl)methyl)piperidine-4-carboxamide], the EC50 is 3890 nM in assay [1]; 186 nM in assay [2]; 33 nM on recombinant GSK3β kinase; 1300 nM in assay [3]; 5.06 µM in assay [4]; 567 nM in assay [5]. The concentration for a half-maximal effect (EC50) in the assay with IL-6 was over 10000 nM. The inhibition at 10 µM in the assay with IL-6 worked out at 28.6%.
Consider `Cc1ncc(-c2ccc3cnc(NC(=O)C4CC4)cc3c2)n1C` [Compound 119, N-(6-(1,2-Dimethyl-1H-imidazol-5-yl)isoquinolin-3-yl) cyclopropanecarboxamide], for which the EC50 worked out at 1060 nM in assay [1]; 2.9 nM in assay [2]; 7 nM at recombinant GSK3β kinase; 418 nM in assay [3]; 0.525 µM in assay [4]; 1410 nM in assay [5]. This molecule returned an EC50 in the assay with IL-6 of 1200 nM.
Take `O=C(Nc1cc2cc(-c3cnc4n3CCNC4)ccc2cn1)C1CCN(CC2(C(F)(F)F)CC2)CC1` [Compound 990, N-(6-(5,6,7,8-Tetrahydroimidazo[1,2-a]pyrazin-3-yl)isoquinolin-3-yl)-1-((1-(trifluoromethyl)cyclopropyl)methyl)piperidine-4-carboxamide]: the concentration for a half-maximal effect (EC50) in assay [1] was determined as 2860 nM; in assay [2], 21.3 nM; at recombinant GSK3β kinase it was 100 nM; in assay [3] it was 1800 nM; in assay [4], 3.55 µM; in assay [5], 782 nM. Besides, in the assay with IL-6, the EC50 is over 10000 nM. The inhibition at 10 µM in the assay on IL-6 was 0%.
On to `CN1CCC(F)(C(=O)Nc2cc3cc(-c4cnn(C)c4)ccc3cn2)CC1` [Compound 92, 4-Fluoro-1-methyl-N-(6-(1-methyl-1H-pyrazol-4-yl)isoquinolin-3-yl) piperidine-4-carboxamide], for which the EC50 in assay [1] is 1600 nM; in assay [2] it was 6.5 nM; on recombinant GSK3β kinase, 361 nM; in assay [3], 3900 nM; in assay [4], 0.983 µM; in assay [5], over 10000 nM. In addition, the EC50 in the assay with IL-6 was over 10000 nM. Moreover, the inhibition at 10 µM in assay [5] stood at 16.7%; with IL-6, 33%.
As for `Cn1cc(-c2ccc3cnc(NC(=O)CN4CCN(C5CC5)CC4)cc3c2)cn1` [Compound 353, 2-(4-Cyclopropylpiperazin-1-yl)-N-(6-(1-methyl-1H-pyrazol-4-yl)isoquinolin-3-yl)acetamide], the concentration for a half-maximal effect (EC50) in assay [1] is 5710 nM; in assay [2], 8.6 nM; at recombinant GSK3β kinase it was 29 nM; in assay [3] it was 724 nM; in assay [4], 8.22 µM; in assay [5], over 10000 nM. Moreover, the EC50 with IL-6 is over 10000 nM. Moreover, the inhibition at 10 µM in assay [5] worked out at 31.7%; with IL-6 it was 39.9%.
